{
  "source": "patent US20090191160A1",
  "about": "“Methods of producing pluripotent stem-like cells” (University of Dayton, priority 2007, published 2009)",
  "format_in_all_cases": "cell-based, mouse",
  "key": {"skin fibroblast cells": {"system": "skin fibroblast cells", "experiment": "Conversion (dedifferentiation) of skin fibroblast cells into stem cell-like cells, phase contrast morphology", "settings": "for conversion of skin fibroblast cells into stem cell-like cells: Thapsigargin 1 μg/ml added to SR-containing medium; for reprogramming / dedifferentiation of skin fibroblast cells into stem cell-like cells: basic medium with SR or lipid-rich BSA versus basic medium only", "description": "(§1) Mouse embryonic skin fibroblast cells (MEFs) derived form 13.5 day mouse embryos and adult mouse primary dermal fibroblasts derived from adult mouse skin were cultured in DMEM Dulbecco's modified Eagle's medium (DMEM) with 10% Fetal Bovine Serum (FBS) at 37° C., 10% CO2. After the cells were grown to confluence, the cells were trypsinized, then suspended in SR-containing medium or basic medium without serum. About 10^5 mouse skin fibroblast cells were transferred to 3 ml SR-containing medium in a 6 well plate. SR-containing medium contained basic medium that included DMEM/F12 (Invitrogen 11330-032), 1× non-Essential Amino Acids (Invitrogen 11140-050), 1× L-Glutamine (Invitrogen 25030-018), […] β-mercaptoethanol and 20% Knockout Serum Replacer (Invitrogen 10828-028). 4 ng/mL bFGF (R&D System Cat# 233-FB) and Leukemia inhibitory factor Lif (ESGRO®, Chemicon ESG1107) were added to the SR-containing medium to prevent stem-like cells from differentiating.\nConversion of fibroblast cells to induced pluripotent stem-like cells can be achieved by culturing a mouse embryonic skin fibroblast (MEF), mouse adult skin fibroblast (MAF) or human skin fibroblast cell in DMEM media having 10% fetal bovine serum (FBS) until the cells are confluent. Serum-replacement (SR)-containing media and 0.25% trypsin/EDTA are then warmed (e.g., at 37° C. in a water bath). Media is aspirated from the fibroblast cell culture plate, cells are washed with 1×PBS, and trypsinized via addition of 2 mls of trypsin/EDTA for one minute, followed by removal of all the trypsin solution. 2 mls of the SR human ES medium or DMEM/F12 medium is then added to the cells (without FBS), and cells are resuspended in the medium using a 5 ml pipet, pipeting up and down until no large clumps remain. About 10^5 cells/well are then added to a six well plate, with each well containing 3 mls of SR human ES medium. The cells are then mixed in this media. Cells are then placed in a warm incubator (e.g., 37° C. at 5% or 10% CO2). The cells are passaged every 3 days for a total of five or more passages. Ingredients of SR human stem cell culture medium are: 400 ml DMEM/F12 (Invitrogen 11330-032), 5 ml non-Essential Amino Acids (Invitrogen 11140-050), 2.5 ml L-Glutamine (Invitrogen 25030-018), […] β-mercaptoethanol (Sigma 7522, add 3.5 ul) and 100 ml Knockout Serum Replacer (Invitrogen 10828-028). Optionally, 4 ng/mL bFGF (R&D System Cat# 233-FB) is present. To make FGF stock, 1 ml of DMEM/F12 was added to dissolve 1 vial of 10 ug of FGF, with this solution aliquotted into five vials, then stored at −20° C. bFGF needed to be added freshly to the medium every time the method was performed. Lif was also needed for mouse cell cultures. Formulation of the SR component of serum-free medium also contained AgNO3 and other trace elements. For AgNO3-containing media, 1000× AgNO3 was added to the medium to a final concentration of 0.0001 mg/L.\nTo investigate the possibility that serum replacement (SR)-containing medium can promote the reprogramming and dedifferentiation of skin fibroblast cells into pluripotent stem-like cells, mouse skin fibroblast cells were cultured in fibroblast growth medium, and were then transferred by trypsinization to plates holding SR-containing medium. […] Twenty-four hours post-transfer, a majority of cells became small, round, bright-edged granulated cells (FIG. 1a). […]"}, "[1]": {"system": "fibroblast growth factor receptor 3 (FGFR3)", "experiment": "Western blotting for FGF Receptor-3 protein in fibroblast cells", "settings": "Western blot; for FGFR3 expression: Thapsigargin 1 ug/ml, 24 hour timepoint", "from_the_text": "[…] […] All Images were acquired in the inverted microscope (Nikon TS100) at 10× magnification using the MetaMorph Imaging Software, and the scale bar is 100 μm.\n(§2) (Up-regulation of FGFR3 had been previously shown to play an important role in the reprogramming of primordial germ cells into stem-like cells (Skottman et al. Stem Cell 24:151-167).)\nIn view of the observed involvement of the FGF signaling pathway, it was then examined whether Ca^2+ might be an important secondary messenger responsible for regulating the reprogramming of fibroblast cells induced by SR containing medium activation of the FGF signaling pathway. Thapsigargin, a tight-binding inhibitor for sarco/endoplasmic reticulum Ca^2+ ATPase, was added to the SR-containing medium at a concentration of 1 μg/ml (Durcova-Hills et al. Stem Cell 24:1441)."}, "embryonic bodies": {"system": "embryonic bodies", "experiment": "In vitro differentiation of embryoid bodies from SR-iPS cells", "settings": "2 μM trans-retinoic acid, 10 days, gelatin coated plates", "description": "One of the most important characteristics of stem-like cells is pluripotency. To investigate the SR-iPS stem cells have the multilineage differention potential as embryonic stem cells in vitro, different passage of iPS cells were used to form embryo bodis (EBs) one week's culture without passing in SR medium without Lif. The EBs continues to differentiate on gelatin coated plates and induced by 2 μM trans-retinoic acid for an additional 10 days. Expression of endoderm-, mesoderm-, and ectoderm-specific markers was examined by using antibodies raised against α-fetoprotein, smooth muscle actin, and β-tubulin III, respectively (21). For more specific cell lineage such as cardiomyocyte and smooth muscle cells differentiation, EBs were transferred to collagen-coated plate which contained α-MEM (cardiac differentiation medium) supplemented with 10 ng/ml platelet-derived growth factor-BB (PDGF-BB). Vascular endothelial growth medium supplemented with 50 ng/ml vascular endothelial growth factor (VEGF) was used for the smooth muscle growth differentiation. Two weeks after culturing the EBs in these medium, the cell morphology were examined by Immunofluorescent Staining with Troponin C and smooth muscle actin antibodies."}, "ES-like cells": {"system": "ES-like cells", "experiment": "Maintenance of ES-like cells in SR-containing medium with growth factors", "settings": "bFGF 4 ng/ml and Lif added together to SR-containing medium", "description": "as §1\nTo investigate the possibility that serum replacement (SR)-containing medium can promote the reprogramming and dedifferentiation of skin fibroblast cells into pluripotent stem-like cells, mouse skin fibroblast cells were cultured in fibroblast growth medium, and were then transferred by trypsinization to plates holding SR-containing medium. […]"}, "Ca^2+ influx": {"system": "Ca^2+ influx", "experiment": "Ca2+ signalling in fibroblast cells after transfer into SR-containing medium", "settings": "after transfer of fibroblast cells", "from_the_text": "as §2"}, "Oct4 promoter": {"system": "Oct4 promoter", "experiment": "Methylation status of the Oct4 promoter in fibroblast cells", "settings": "before and after contact with SR medium"}},
  "data": [
    {"compound": "C/C=C(/C)C(=O)O[C@H]1C(C)=C2[C@H]([C@@H]1OC(=O)CCCCCCC)[C@@](C)(OC(C)=O)C[C@H](OC(=O)CCC)[C@@]1(O)[C@H]2OC(=O)[C@@]1(C)O", "note": "[Thapsigargin, reference compound]", "values": [
      {"measurement": "conversion of skin fibroblast cells into stem cell-like cells", "setting": "skin fibroblast cells", "result": "prevented conversion of the fibroblast cells into stem-like cells"},
      {"measurement": "conversion of skin fibroblast cells into stem cell-like cells", "setting": "skin fibroblast cells; listed as thapsigargin", "result": "prevented"},
      {"measurement": "FGFR3 expression", "setting": "[1]", "result": "down-regulated FGF receptor 3 (FGFR3) expression"},
      {"measurement": "FGFR3 expression", "setting": "[1]; listed as thapsigargin", "result": "prevented"}
    ]},
    {"compound": "CCCCC/C=C\\C/C=C\\C/C=C\\C/C=C\\CCCC(=O)O", "note": "[acarchodonic acid]", "values": [
      {"measurement": "reprogramming / dedifferentiation of skin fibroblast cells into stem cell-like cells", "setting": "skin fibroblast cells", "result": "required to create stem-like cells"}
    ]},
    {"compound": "CC1=C(/C=C/C(C)=C/C=C/C(C)=C/C(=O)O)C(C)(C)CCC1", "note": "[retinonic acid, trans-retinoic acid]", "values": [
      {"measurement": "differentiation into three germ layers (AFP, SM-Actin, β-tubulin III staining)", "setting": "embryonic bodies", "result": "differentiation of the embryonic bodies into three germ layers"}
    ]},
    {"compound": "bFGF: basic fibroblast growth factor (R&D System Cat# 233-FB)", "values": [
      {"measurement": "division and differentiation of ES-like cells", "setting": "ES-like cells", "result": "promote division of the ES-like cells, while preventing differentiation of these cells"}
    ]},
    {"compound": "lipid-rich BSA: AlbuMAX I is the high-lipid BSA (Invitrogen)", "values": [
      {"measurement": "reprogramming / dedifferentiation of skin fibroblast cells into stem cell-like cells", "setting": "skin fibroblast cells", "result": "promoted the dedifferentiation of skin fibroblast cells into stem cell-like cells"},
      {"measurement": "reprogramming / dedifferentiation of skin fibroblast cells into stem cell-like cells", "setting": "skin fibroblast cells; listed as high-lipid BSA", "result": "required to create stem-like cells"},
      {"measurement": "FGFR3 expression after transfer into medium", "setting": "[1]; 2, 4, 8, 12 hours after transfer", "result": "induced"},
      {"measurement": "Ca^2+ influx / signalling", "setting": "Ca^2+ influx", "result": "induced"},
      {"measurement": "methylation status of the Oct4 promoter", "setting": "Oct4 promoter", "result": "induced"}
    ]}
  ]
}
